Values of other authors in patent publication US6462226B1, “Process for the preparation of 4,5-diamino shikimic acid derivatives” (priority 1999, dated 2002).

Test system: viral neuraminidase
Conditions: J. C. Rohloff et al., J.Org.Chem. 63, 1998, 4545-4550; WO 98/07685

With CCOC(=O)C1=C[C@@H](OC(CC)CC)[C@H](NC(C)=O)[C@@H](N)C1 [Example 1, Ethyl (3R, 4R, 5S)-4-acetamido-5-amino-3-(1-ethylpropoxy)-1-cyclohexene-1-carboxylate] as the compound, how does the “inhibition of viral neuraminidase” value read?
The value was “potent inhibitors”.
